The values below come from patent publication US20220411388A1, “SUBSTITUTED IMIDAZOLE CARBOXAMIDES AND THEIR USE IN THE TREATMENT OF MEDICAL DISORDERS” (Bial - R&D Investments, S.A., priority 2019, published 2022).

Converted amounts (≈) assume the structure as drawn.

In data set [1] the target is T1, acid ceramidase (hACR) (Homo sapiens, UniProt Q13510).
T1 construct: expressed in transfected cells
T1 sequence (Q13510 22-395): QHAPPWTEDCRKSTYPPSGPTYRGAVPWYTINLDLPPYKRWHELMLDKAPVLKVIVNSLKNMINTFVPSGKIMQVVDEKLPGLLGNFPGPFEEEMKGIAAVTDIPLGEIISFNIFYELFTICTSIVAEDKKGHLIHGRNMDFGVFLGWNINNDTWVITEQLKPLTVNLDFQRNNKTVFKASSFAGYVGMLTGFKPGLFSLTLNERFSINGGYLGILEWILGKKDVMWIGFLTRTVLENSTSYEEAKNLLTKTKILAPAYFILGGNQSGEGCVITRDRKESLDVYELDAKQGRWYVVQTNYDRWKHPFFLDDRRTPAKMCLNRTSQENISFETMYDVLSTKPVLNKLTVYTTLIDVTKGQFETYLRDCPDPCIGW
Briefly: Acid ceramidase inhibition, biochemical fluorescent assay with cell lysates overexpressing acid ceramidase (substrate Rbm14-12). The note with it: cell lysate, 1 hr preincubation at RT, pH 4.5, Rbm14-12 6.3 μM; read-out: IC50 hACR. As for the experimental part: The ability of exemplary compounds to inhibit acid ceramidase was measured.
Cell lysates overexpressing acid ceramidase were used as the enzyme source for compound potency determination in a biochemical fluorescent assay. Briefly, compounds were preincubated with 10 μg protein of cell lysates in a dose-response manner for 1 hr at RT in the assay buffer containing 25 mM NaAC and 100 mM NaCl, pH 4.5. […] The samples were incubated with the stopping buffer at RT for 1 hr to allow the fluorescent product to be formed. […] Data were collected and used to determine the IC50 values of compounds by curve fitting to the four-parameter inhibition equation.

The nature of data set [2]: Compound solubility in water. It counts as physicochemical.

In the case of `COc1nc(-c2ccccc2)cn1C(=O)NC1CCCC(F)(F)C1` (centres unmarked) [Example 158, N-(3,3-Difluorocyclohexyl)-2-methoxy-4-phenyl-1H-imidazole-1-carboxamide], the IC50 in data set [1] lay in the range of 200 to 1000 nM. This compound also registered a solubility in data set [2] of 1 µg/mL (≈ 2.98 µM).

For `O=C(NCCc1ccccc1)n1cnc(-c2cccnc2)c1` [Example 5], in data set [1], the IC50 lay within 200 to 1000 nM. In data set [2], this compound gave a solubility of 16.2 µg/mL (≈ 55.4 µM).

On to `O=C(NCCC1CC1)n1cc(-c2cccnc2)nc1OC1CC1` [Example 66, 2-Cyclopropoxy-N-(2-cyclopropylethyl)-4-(pyridin-3-yl)-1H-imidazole-1-carboxamide], for which the IC50 in data set [1] is > 1000 nM. The same compound displayed a solubility in data set [2] of 25 µg/mL (≈ 80 µM).

Turning to `Cc1cn(C(=O)NCCc2ccccc2)c(OC(C)C)n1` [Example 149, 2-iso-Propoxy-4-methyl-N-phenethyl-1H-imidazole-1-carboxamide], the IC50 in data set [1] was < 200 nM. For the same compound, the solubility in data set [2] was 21 µg/mL (≈ 73.1 µM).

Consider `CC(C)Oc1nc(-c2cccnc2)cn1C(=O)NCCC1CC1` [Example 65, N-(2-Cyclopropylethyl)-2-isopropoxy-4-(pyridin-3-yl)-1H-imidazole-1-carboxamide], for which, in data set [1], the IC50 is 200 to 1000 nM. The same compound had a solubility in data set [2] of 25 µg/mL (≈ 79.5 µM).

As for `COc1nc(C2CC2)cn1C(=O)NC1CC1` [Example 125, N,4-Dicyclopropyl-2-methoxy-1H-imidazole-1-carboxamide], the IC50 in data set [1] was > 1000 nM. The compound also displayed a solubility in data set [2] of 14 µg/mL (≈ 63.3 µM).

As to `COc1nc(C(C)(C)C)cn1C(=O)NCCCC(F)(F)F` [Example 91, 4-(tert-Butyl)-2-methoxy-N-(4,4,4-trifluorobutyl)-1H-imidazole-1-carboxamide], the IC50 in data set [1] lay within 200 to 1000 nM. For the same compound, the concentration in solution in data set [2] (solubility) came to 22 µg/mL (≈ 71.6 µM).

On to `CCOc1nc(-c2ccccn2)cn1C(=O)NCCC1CC1` [Example 63, N-(2-Cyclopropylethyl)-2-ethoxy-4-(pyridin-2-yl)-1H-imidazole-1-carboxamide], for which the IC50 in data set [1] was > 1000 nM. In data set [2], the solubility worked out at 24.1 µg/mL (≈ 80.2 µM).

On to `CC(C)CC(C)NC(=O)n1cnc(-c2cccnc2)c1` (centres unmarked) [Example 59, N-(4-Methylpentan-2-yl)-4-(pyridin-3-yl)-1H-imidazole-1-carboxamide], for which, in data set [1], the IC50 lay in the range of 200 to 1000 nM. Further, the concentration in solution in data set [2] (solubility) was 22.3 µg/mL (≈ 81.9 µM).

Take `COc1nccn1C(=O)NCCCC(C)C` [Example 123, 2-Methoxy-N-(4-methylpentyl)-1H-imidazole-1-carboxamide]: the half-maximal inhibitory concentration (IC50) in data set [1] was < 200 nM. The compound also returned a solubility in data set [2] of 16 µg/mL (≈ 71 µM).

In the case of `CC(C)OCCNC(=O)n1cnc(-c2cccnc2)c1` [Example 24, N-(2-iso-Propoxyethyl)-4-(pyridin-3-yl)-1H-imidazole-1-carboxamide], the IC50 in data set [1] was > 1000 nM. Besides, in data set [2], the concentration in solution (solubility) came to 12.6 µg/mL (≈ 45.9 µM).

On to `COc1nccn1C(=O)NCCCCC1(C(F)(F)F)CC1` [Example 138, 2-Methoxy-N-(4-(1-(trifluoromethyl)cyclopropyl)butyl)-1H-imidazole-1-carboxamide], for which the 50% inhibitory concentration (IC50) in data set [1] is < 200 nM. This compound came in with a solubility in data set [2] of 27 µg/mL (≈ 88.4 µM).

For `COc1nc(C)cn1C(=O)NCCC(C)C` [Example 160, N-iso-Pentyl-2-methoxy-4-methyl-1H-imidazole-1-carboxamide], the IC50 in data set [1] is < 200 nM. Further, the “Compound Solubility in Water” value in data set [2] is 13 µg/mL.

For `COc1nc(Cl)cn1C(=O)NC1CC1` [Example 189, 4-Chloro-N-cyclopropyl-2-methoxy-1H-imidazole-1-carboxamide], in data set [1], the IC50 was > 1000 nM. For the same compound, in data set [2], the solubility is 26 µg/mL (≈ 121 µM).

Turning to `COc1nc(C(C)(C)C)cn1C(=O)NCCCC1CC1` [Example 95, 4-(tert-Butyl)-N-(3-cyclopropylpropyl)-2-methoxy-1H-imidazole-1-carboxamide], the IC50 in data set [1] is < 200 nM. In addition, in data set [2], the concentration in solution (solubility) came to 12 µg/mL (≈ 43 µM).

As for `COc1nc(C2(C)CCC(=O)N2C)cn1C(=O)NCCC(C)C` (centres unmarked) [Example 82, 4-(1,2-Dimethyl-5-oxopyrrolidin-2-yl)-N-iso-pentyl-2-methoxy-1H-imidazole-1-carboxamide], the IC50 in data set [1] was > 1000 nM. The solubility in data set [2] was found to be 31 µg/mL (≈ 96.2 µM).

Regarding `COc1nc(Cl)cn1C(=O)NCC#CC(C)C` [Example 186, 4-Chloro-2-methoxy-N-(4-methylpent-2-yn-1-yl)-1H-imidazole-1-carboxamide], the IC50 in data set [1] was in the range of 200 to 1000 nM.

Regarding `CC(C)Oc1nc(Cl)cn1C(=O)NCCCC(F)(F)F` [Example 187, 4-Chloro-2-isopropoxy-N-(4,4,4-trifluorobutyl)-1H-imidazole-1-carboxamide], the IC50 in data set [1] fell in the range of 200 to 1000 nM. Further, the solubility in data set [2] came out at 29 µg/mL (≈ 92.4 µM).

On to `COc1nc(C(C)(C)C)cn1C(=O)NCCc1ccccc1` [Example 11, 4-tert-Butyl-2-methoxy-N-phenethyl-1H-imidazole-1-carboxamide], for which the IC50 in data set [1] lay in the range of 200 to 1000 nM. In data set [2], this compound showed a solubility of 15.1 µg/mL (≈ 50.1 µM).

Regarding `COc1nc(-c2ccccc2)cn1C(=O)NC1CCC(F)(F)CC1` [Example 157, N-(4,4-Difluorocyclohexyl)-2-methoxy-4-phenyl-1H-imidazole-1-carboxamide], in data set [1], the IC50 is 200 to 1000 nM. For the same compound, the solubility in data set [2] worked out at 1 µg/mL (≈ 2.98 µM).

On to `COc1nc(C(C)(C)C)cn1C(=O)NC1CCCCC1` [Example 93, 4-(tert-Butyl)-N-cyclohexyl-2-methoxy-1H-imidazole-1-carboxamide], for which, in data set [1], the IC50 was 200 to 1000 nM. The amount in solution in data set [2] (solubility) came to 8 µg/mL (≈ 28.6 µM).

Consider `CC(C)(C)CCNC(=O)n1cnc(-c2cccnc2)c1` [Example 45, N-(3,3-Dimethylbutyl)-4-(pyridin-3-yl)-1H-imidazole-1-carboxamide], for which, in data set [1], the IC50 fell in the range of 200 to 1000 nM. The compound also gave a solubility in data set [2] of 12.1 µg/mL (≈ 44.4 µM).

For the compound `Cc1cn(C(=O)NCCC(C)C)c(Oc2ccccc2)n1` [Example 146, N-iso-Pentyl-4-methyl-2-phenoxy-1H-imidazole-1-carboxamide], the IC50 in data set [1] was < 200 nM. The compound also came in with a solubility in data set [2] of 19 µg/mL (≈ 66.1 µM).

As to `COc1nc(C(C)(C)C)cn1C(=O)NCCCCn1ccc(C(C)(C)C)n1` [Example 134, 4-(tert-Butyl)-N-(4-(3-(tert-butyl)-1H-pyrazol-1-yl)butyl)-2-methoxy-1H-imidazole-1-carboxamide], in data set [1], the IC50 is < 200 nM. Moreover, the solubility in data set [2] is 18 µg/mL (≈ 47.9 µM).

In the case of `COc1nc(-c2cccnc2N2CCN(C)CC2)cn1C(=O)NCCCC1(C(F)(F)F)CC1` [Example 195], in data set [1], the IC50 was > 1000 nM. The amount in solution in data set [2] (solubility) came to 35 µg/mL (≈ 75 µM).

Turning to `COc1nc(C)cn1C(=O)NCC#CCC1(C(F)(F)F)CC1` [Example 182, 2-Methoxy-4-methyl-N-(4-(1-(trifluoromethyl)cyclopropyl)but-2-ynyl)-1H-imidazole-1-carboxamide], in data set [1], the IC50 is < 200 nM. Besides, the concentration in solution in data set [2] (solubility) was 25 µg/mL (≈ 79.3 µM).

Turning to `COc1ccc(-c2cn(C(=O)NCCC3(C(F)(F)F)CC3)cn2)cn1` [Example 71, 4-(6-Methoxypyridin-3-yl)-N-(2-(1-(trifluoromethyl)cyclopropyl)ethyl)-1H-imidazole-1-carboxamide], the IC50 in data set [1] was < 200 nM. The compound also registered a solubility in data set [2] of 22 µg/mL (≈ 62.1 µM).

As for `COc1nc(C)cn1C(=O)NC1CCC(F)(F)CC1` [Example 152, N-(4,4-difluorocyclohexyl)-2-methoxy-4-methyl-1H-imidazole-1-carboxamide], in data set [1], the IC50 was > 1000 nM. In data set [2], this compound returned a solubility of 30 µg/mL (≈ 110 µM).

`Cc1cn(C(=O)NCCCC(F)(F)F)c(Oc2ccccc2)n1` [Example 171, 4-Methyl-2-phenoxy-N-(4,4,4-trifluorobutyl)-1H-imidazole-1-carboxamide]: the IC50 in data set [1] is < 200 nM. Moreover, the solubility in data set [2] turned out to be 24 µg/mL (≈ 73.3 µM).

`COc1nc(C2CCCC2)cn1C(=O)NC1CCCCC1` [Example 106, N-Cyclohexyl-4-cyclopentyl-2-methoxy-1H-imidazole-1-carboxamide]: the IC50 in data set [1] is > 1000 nM. Also, in data set [2], the solubility is 6 µg/mL (≈ 20.6 µM).

For the compound `Cc1cn(C(=O)NCC#CCc2ccccc2)c(OCCN2CCN(C)CC2)n1` [Example 201, 4-Methyl-2-(2-(4-methylpiperazin-1-yl)ethoxy)-N-(4-phenylbut-2-ynyl)-1H-imidazole-1-carboxamide], the IC50 in data set [1] is < 200 nM. The same compound registered a solubility in data set [2] of 39 µg/mL (≈ 98.6 µM).

As for `CC(C)CCNC(=O)n1cnc(C2CCCN(C)C2)c1` (centres unmarked) [Example 47, N-iso-Pentyl-4-(1-methylpiperidin-3-yl)-1H-imidazole-1-carboxamide], the IC50 in data set [1] lay within 200 to 1000 nM. In addition, in data set [2], the concentration in solution (solubility) was 32.2 µg/mL (≈ 116 µM).

As for `COc1nc(C(C)(C)C)cn1C(=O)NC1CCC(F)(F)CC1` [Example 112, 4-(tert-Butyl)-N-(4,4-difluorocyclohexyl)-2-methoxy-1H-imidazole-1-carboxamide], the IC50 in data set [1] was in the range of 200 to 1000 nM. The compound also showed a solubility in data set [2] of 12 µg/mL (≈ 38.1 µM).

As for `COc1nc(C(C)(C)C)cn1C(=O)NCCC1(C(F)(F)F)CC1` [Example 90, 4-(tert-Butyl)-2-methoxy-N-(2-(1-(trifluoromethyl)cyclopropyl)ethyl)-1H-imidazole-1-carboxamide], in data set [1], the IC50 lay in the range of 200 to 1000 nM. Besides, the solubility in data set [2] is 17 µg/mL (≈ 51 µM).

`CN1CCN(c2ncccc2-c2cn(C(=O)NCCCC3(C(F)(F)F)CC3)cn2)CC1` [Example 176, 4-(2-(4-Methylpiperazin-1-yl)pyridin-3-yl)-N-(3-(1-(trifluoromethyl)cyclopropyl)propyl)-1H-imidazole-1-carboxamide] yielded a solubility in data set [2] of 29 µg/mL (≈ 66.4 µM).
